From ChEMBL document CHEMBL4665659, “Utilizing comprehensive and mini-kinome panels to optimize the selectivity of quinoline inhibitors for cyclin G associated kinase (GAK)” (Bioorg Med Chem Lett, 2019)
Active and inactive are the calls of the source. The rule behind the calls is not given here.

Legend:
[1] = target: Bone morphogenetic protein receptor type-1B (Homo sapiens, UniProt O00238); assay: Inhibition of human ALK6 at 1 uM by Kinomescan method
[2] = target: T1, Activin receptor type-1 (Homo sapiens) (UniProt Q04771); assay: Inhibition of human wild type partial length ALK2 (C188 to C509 residues) expressed in bacterial expression system at 1 uM by Kinomescan method relative to control
T1 sequence (whole entry): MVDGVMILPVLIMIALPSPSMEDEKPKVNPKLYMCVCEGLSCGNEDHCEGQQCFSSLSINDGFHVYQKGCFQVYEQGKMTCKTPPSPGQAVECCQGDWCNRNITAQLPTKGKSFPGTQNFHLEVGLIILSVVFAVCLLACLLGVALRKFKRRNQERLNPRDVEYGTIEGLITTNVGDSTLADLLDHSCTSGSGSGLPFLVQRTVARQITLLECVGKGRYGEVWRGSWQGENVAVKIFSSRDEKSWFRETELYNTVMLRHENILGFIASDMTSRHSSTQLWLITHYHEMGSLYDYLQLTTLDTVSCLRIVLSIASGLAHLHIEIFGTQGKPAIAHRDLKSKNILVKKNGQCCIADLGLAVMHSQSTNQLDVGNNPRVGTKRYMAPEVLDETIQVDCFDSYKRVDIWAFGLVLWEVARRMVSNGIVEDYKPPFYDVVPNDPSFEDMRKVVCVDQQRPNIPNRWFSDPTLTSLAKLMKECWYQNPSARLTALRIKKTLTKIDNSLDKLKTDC

Homo sapiens = species: Homo sapiens; assay: Binding affinity to human ABL at 1 uM by Kinomescan method
[3] = target: RAF proto-oncogene serine/threonine-protein kinase (Homo sapiens) (UniProt P04049); assay: Inhibition of human wild type partial length C-Raf (I330 to T640 residues) expressed in bacterial expression system at 1 uM by Kinomescan method relative to control
[4] = target: T2, Cyclin-G-associated kinase (Homo sapiens, UniProt O14976); assay: Binding affinity to human wild type partial length GAK (G13 to Y338 residues) expressed in bacterial expression system by KinomeScan method
T2 sequence (O14976 whole entry): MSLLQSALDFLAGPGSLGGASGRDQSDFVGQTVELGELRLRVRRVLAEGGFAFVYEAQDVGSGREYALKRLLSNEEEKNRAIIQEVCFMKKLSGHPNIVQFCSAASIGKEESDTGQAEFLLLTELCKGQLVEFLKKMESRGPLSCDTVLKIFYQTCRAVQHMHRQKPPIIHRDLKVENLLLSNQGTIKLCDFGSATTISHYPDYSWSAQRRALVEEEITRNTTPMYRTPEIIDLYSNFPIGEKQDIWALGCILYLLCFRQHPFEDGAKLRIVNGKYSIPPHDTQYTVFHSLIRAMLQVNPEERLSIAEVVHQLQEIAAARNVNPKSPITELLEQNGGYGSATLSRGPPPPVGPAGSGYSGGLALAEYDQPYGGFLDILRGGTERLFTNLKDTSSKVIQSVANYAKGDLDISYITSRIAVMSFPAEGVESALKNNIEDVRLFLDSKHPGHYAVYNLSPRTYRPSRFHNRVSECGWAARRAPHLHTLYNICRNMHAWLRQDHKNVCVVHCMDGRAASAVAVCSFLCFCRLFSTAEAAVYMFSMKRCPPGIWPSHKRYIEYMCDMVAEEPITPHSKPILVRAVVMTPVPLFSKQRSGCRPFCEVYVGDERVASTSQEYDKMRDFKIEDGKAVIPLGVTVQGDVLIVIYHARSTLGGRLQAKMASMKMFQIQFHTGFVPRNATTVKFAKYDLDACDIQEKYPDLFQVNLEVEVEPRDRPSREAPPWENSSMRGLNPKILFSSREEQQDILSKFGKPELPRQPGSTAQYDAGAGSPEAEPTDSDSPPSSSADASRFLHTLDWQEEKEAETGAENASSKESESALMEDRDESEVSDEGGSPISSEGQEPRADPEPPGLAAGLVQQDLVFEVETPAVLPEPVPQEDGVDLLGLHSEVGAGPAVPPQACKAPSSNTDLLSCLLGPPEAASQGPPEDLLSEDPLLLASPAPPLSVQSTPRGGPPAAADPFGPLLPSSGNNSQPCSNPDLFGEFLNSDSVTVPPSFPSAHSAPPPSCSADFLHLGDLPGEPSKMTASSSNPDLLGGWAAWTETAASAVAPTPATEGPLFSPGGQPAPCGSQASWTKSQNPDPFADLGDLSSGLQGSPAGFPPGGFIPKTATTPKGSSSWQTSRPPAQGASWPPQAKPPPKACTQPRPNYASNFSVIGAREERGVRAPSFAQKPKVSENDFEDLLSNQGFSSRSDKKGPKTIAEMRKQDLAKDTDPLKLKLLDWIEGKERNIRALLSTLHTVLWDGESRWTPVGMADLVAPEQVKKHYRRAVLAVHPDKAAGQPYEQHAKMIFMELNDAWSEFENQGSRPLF

[5] = target: Epidermal growth factor receptor (Homo sapiens) (UniProt P00533); assay: Inhibition of human wild type partial length EGFR (R669 to V1011 residues) expressed in bacterial expression system at 1 uM by Kinomescan method
Chain of Epidermal growth factor receptor (Homo sapiens) (P00533 whole entry, the tested form may be a part): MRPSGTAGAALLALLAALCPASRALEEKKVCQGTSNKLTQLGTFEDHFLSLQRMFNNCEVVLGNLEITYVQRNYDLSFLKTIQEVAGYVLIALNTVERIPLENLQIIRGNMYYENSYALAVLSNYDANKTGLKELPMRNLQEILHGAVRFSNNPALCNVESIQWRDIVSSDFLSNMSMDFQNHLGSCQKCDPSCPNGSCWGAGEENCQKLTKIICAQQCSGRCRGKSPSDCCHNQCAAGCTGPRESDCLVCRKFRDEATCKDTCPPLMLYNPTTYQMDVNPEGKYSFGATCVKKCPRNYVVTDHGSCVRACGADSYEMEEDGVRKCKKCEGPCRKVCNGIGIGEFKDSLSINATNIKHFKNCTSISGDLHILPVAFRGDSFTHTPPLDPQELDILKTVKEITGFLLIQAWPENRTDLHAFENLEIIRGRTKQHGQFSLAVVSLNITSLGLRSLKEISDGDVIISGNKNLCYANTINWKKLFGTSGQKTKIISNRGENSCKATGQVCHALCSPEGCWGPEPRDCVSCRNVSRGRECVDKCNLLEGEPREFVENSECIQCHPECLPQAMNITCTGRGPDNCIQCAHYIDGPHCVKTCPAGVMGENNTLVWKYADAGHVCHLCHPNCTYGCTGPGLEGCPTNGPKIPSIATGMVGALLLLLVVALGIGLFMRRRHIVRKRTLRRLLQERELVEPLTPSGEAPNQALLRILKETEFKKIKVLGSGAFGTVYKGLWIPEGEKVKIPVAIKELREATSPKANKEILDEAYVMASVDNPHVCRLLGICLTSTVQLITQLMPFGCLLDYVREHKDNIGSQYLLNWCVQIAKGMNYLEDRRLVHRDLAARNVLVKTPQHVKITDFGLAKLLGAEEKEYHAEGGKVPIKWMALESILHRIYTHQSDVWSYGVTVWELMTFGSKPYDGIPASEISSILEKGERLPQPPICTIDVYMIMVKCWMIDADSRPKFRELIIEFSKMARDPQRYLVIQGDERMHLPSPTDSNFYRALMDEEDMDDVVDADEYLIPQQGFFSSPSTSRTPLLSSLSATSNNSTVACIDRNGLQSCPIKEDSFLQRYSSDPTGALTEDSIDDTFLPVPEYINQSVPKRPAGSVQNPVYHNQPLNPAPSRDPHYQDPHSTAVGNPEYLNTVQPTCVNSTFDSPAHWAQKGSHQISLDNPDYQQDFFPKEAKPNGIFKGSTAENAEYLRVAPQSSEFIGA

Chain of Bone morphogenetic protein receptor type-1B (O00238 whole entry, the tested form may be a part): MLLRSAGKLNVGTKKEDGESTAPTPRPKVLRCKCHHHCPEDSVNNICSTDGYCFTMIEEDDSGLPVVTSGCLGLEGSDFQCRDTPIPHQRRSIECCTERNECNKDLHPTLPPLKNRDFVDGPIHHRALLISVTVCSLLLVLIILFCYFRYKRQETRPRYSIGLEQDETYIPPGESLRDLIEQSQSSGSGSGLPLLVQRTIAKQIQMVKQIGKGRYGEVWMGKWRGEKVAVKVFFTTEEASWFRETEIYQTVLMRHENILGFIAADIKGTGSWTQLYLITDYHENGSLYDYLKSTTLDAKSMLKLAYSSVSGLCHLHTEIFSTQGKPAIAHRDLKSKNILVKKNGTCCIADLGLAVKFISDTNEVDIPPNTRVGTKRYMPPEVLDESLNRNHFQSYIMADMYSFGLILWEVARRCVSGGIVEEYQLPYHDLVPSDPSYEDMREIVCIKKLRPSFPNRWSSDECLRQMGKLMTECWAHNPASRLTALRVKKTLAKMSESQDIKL
Chain of RAF proto-oncogene serine/threonine-protein kinase (Homo sapiens) (P04049 whole entry, the tested form may be a part): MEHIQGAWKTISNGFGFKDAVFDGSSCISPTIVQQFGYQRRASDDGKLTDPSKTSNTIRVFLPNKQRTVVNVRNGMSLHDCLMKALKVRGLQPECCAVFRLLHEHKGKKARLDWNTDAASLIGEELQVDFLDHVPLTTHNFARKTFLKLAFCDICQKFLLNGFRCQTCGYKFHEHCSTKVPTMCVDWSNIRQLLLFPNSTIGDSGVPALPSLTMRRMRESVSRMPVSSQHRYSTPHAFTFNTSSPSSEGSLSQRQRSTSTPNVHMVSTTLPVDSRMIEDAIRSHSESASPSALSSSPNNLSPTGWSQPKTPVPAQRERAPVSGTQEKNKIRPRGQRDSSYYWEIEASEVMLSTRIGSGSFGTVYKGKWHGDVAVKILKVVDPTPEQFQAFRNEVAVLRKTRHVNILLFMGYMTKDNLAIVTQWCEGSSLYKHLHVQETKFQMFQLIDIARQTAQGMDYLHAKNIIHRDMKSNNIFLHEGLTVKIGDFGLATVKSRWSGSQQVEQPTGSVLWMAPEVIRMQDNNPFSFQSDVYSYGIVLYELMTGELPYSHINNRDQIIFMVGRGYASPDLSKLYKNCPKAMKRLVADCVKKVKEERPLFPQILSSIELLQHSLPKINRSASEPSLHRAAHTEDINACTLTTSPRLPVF

Compound	inhibition [1]	inhibition [2] [%]	Activity (Homo sapiens)	inhibition [3] [%]	Kd [4] [nM]	inhibition [5]
COc1cc(Nc2ccnc3cc(Cl)ccc23)cc(OC)c1OC	Active	80	Active	70	13	inactive
COc1cc(Nc2ccnc3cc(C(F)(F)F)ccc23)cc(OC)c1OC	Active	80	Active	70	23	inactive
COc1cc(Nc2ccnc3cc(C#N)ccc23)cc(OC)c1OC	Active	80	Active	70	43	inactive

Compounds with a lower Kd [4], results first:

inhibition [1]	inhibition [2] [%]	Activity (Homo sapiens)	inhibition [3] [%]	Kd [4] [nM]	inhibition [5]	Compound
Active	80	Active	70	8.6	inactive	COc1cc(Nc2ccnc3cc(Br)ccc23)cc(OC)c1OC
Active	80	Active	70	7.6	inactive	COc1cc(Nc2ccnc3cc(I)ccc23)cc(OC)c1OC
